Patent US10251395B2, “Substituted furano-/thienocycloalkylamino-2-pyrimidine derivatives and use thereof for controlling undesired plant growth” (Bayer CropScience Aktiengesellschaft, priority 2015, dated 2019)

How the values were obtained:
Type in all cases: in vivo
Cyperus esculentus = test: Pre-emergence herbicidal effect; details: scored visually after 3 weeks
Outline: (§1)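 Sowing in sandy loam, covering with soil, then surface application of compound as aqueous suspension or emulsion (600 to 800 L/ha, 0.2% wetting agent). Greenhouse growth under good conditions; visual % damage scored at 3 weeks versus untreated pots.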

Ipomoea purpurea [1] = test: Pre-emergence herbicidal effect; details: scored visually after 3 weeks
Outline: as §1

Matricaria inodora [2] = test: Pre-emergence herbicidal effect; details: scored visually after 3 weeks
Outline: as §1

Stellaria media [3] = test: Pre-emergence herbicidal effect; details: scored visually after 3 weeks
Outline: as §1

Veronica persica [4] = test: Pre-emergence herbicidal effect; details: scored visually after 3 weeks
Outline: as §1

Viola tricolor [5] = test: Pre-emergence herbicidal effect; details: scored visually after 3 weeks
Outline: as §1

Abutilon theophrasti [6] = test: Post-emergence herbicidal effect; details: assessed visually after about 3 weeks vs untreated controls
Outline: (§2)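 Percent herbicidal action was judged by eye roughly 3 weeks post-application, 0% matching control plants and 100% meaning plant death. Seedlings, greenhouse-grown in sandy loam, received the spray at one leaf.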

Amaranthus retroflexus [7] = test: Post-emergence herbicidal effect; details: assessed visually after about 3 weeks vs untreated controls
Outline: as §2

Setaria viridis [8] = test: Post-emergence herbicidal effect; details: assessed visually after about 3 weeks vs untreated controls
Outline: as §2

Stellaria media [9] = test: Post-emergence herbicidal effect; details: assessed visually after about 3 weeks vs untreated controls
Outline: as §2

Veronica persica [10] = test: Post-emergence herbicidal effect; details: assessed visually after about 3 weeks vs untreated controls
Outline: as §2

Viola tricolor [11] = test: Post-emergence herbicidal effect; details: assessed visually after about 3 weeks vs untreated controls
Outline: as §2

Alopecurus myosuroides = test: Pre-emergence herbicidal effect; details: scored visually after 3 weeks
Outline: as §1

Echinochloa crus-galli [12] = test: Pre-emergence herbicidal effect; details: scored visually after 3 weeks
Outline: as §1

Lolium multiflorum = test: Pre-emergence herbicidal effect; details: Dosage 320 g/ha, scored visually after 3 weeks
Outline: as §1

Setaria viridis [13] = test: Pre-emergence herbicidal effect; details: scored visually after 3 weeks
Outline: as §1

Ipomoea purpurea [14] = test: Post-emergence herbicidal effect; details: 320 g/ha, assessed visually after about 3 weeks vs untreated controls
Outline: as §2

Matricaria inodora [15] = test: Post-emergence herbicidal effect; details: assessed visually after about 3 weeks vs untreated controls
Outline: as §2

Abutilon theophrasti [16] = test: Pre-emergence herbicidal effect; details: scored visually after 3 weeks
Outline: as §1

Amaranthus retroflexus [17] = test: Pre-emergence herbicidal effect; details: scored visually after 3 weeks
Outline: as §1

Avena fatua = test: Pre-emergence herbicidal effect; details: scored visually after 3 weeks
Outline: as §1

Polygonum convolvulus = test: Pre-emergence herbicidal effect; details: scored visually after 3 weeks
Outline: as §1

Echinochloa crus-galli [18] = test: Post-emergence herbicidal effect; details: 320 g/ha, assessed visually after about 3 weeks vs untreated controls
Outline: as §2

| Structure (SMILES) | CYPES pre-emergence efficacy (herbicidal activity) (Cyperus esculentus; Dosage 80 g/ha) | CYPES pre-emergence efficacy (herbicidal activity) (Cyperus esculentus; Dosage 320 g/ha) | PHBPU pre-emergence efficacy (herbicidal activity) (Ipomoea purpurea [1]; Dosage 80 g/ha) | PHBPU pre-emergence efficacy (herbicidal activity) (Ipomoea purpurea [1]; Dosage 320 g/ha) | MATIN pre-emergence efficacy (herbicidal activity) (Matricaria inodora [2]; Dosage 80 g/ha) | MATIN pre-emergence efficacy (herbicidal activity) (Matricaria inodora [2]; Dosage 320 g/ha) | STEME pre-emergence efficacy (herbicidal activity) (Stellaria media [3]; Dosage 80 g/ha) | STEME pre-emergence efficacy (herbicidal activity) (Stellaria media [3]; Dosage 320 g/ha) | VERPE pre-emergence efficacy (herbicidal activity) (Veronica persica [4]; Dosage 80 g/ha) | VERPE pre-emergence efficacy (herbicidal activity) (Veronica persica [4]; Dosage 320 g/ha) | VIOTR pre-emergence efficacy (herbicidal activity) (Viola tricolor [5]; Dosage 80 g/ha) | VIOTR pre-emergence efficacy (herbicidal activity) (Viola tricolor [5]; Dosage 320 g/ha) | post-emergence efficacy AMARE (Amaranthus retroflexus [7]; 80 g/ha) | post-emergence efficacy AMARE (Amaranthus retroflexus [7]; 320 g/ha) | post-emergence efficacy SETVI (Setaria viridis [8]; 320 g/ha) | post-emergence efficacy STEME (Stellaria media [9]; 80 g/ha) | post-emergence efficacy STEME (Stellaria media [9]; 320 g/ha) | post-emergence efficacy VERPE (Veronica persica [10]; 320 g/ha) | post-emergence efficacy VIOTR (Viola tricolor [11]; 80 g/ha) | post-emergence efficacy VIOTR (Viola tricolor [11]; 320 g/ha) | also measured |
| --- | --- | --- | --- | --- | --- | --- | --- | --- | --- | --- | --- | --- | --- | --- | --- | --- | --- | --- | --- | --- | --- |
| Cc1cc2c(s1)CCCC2Nc1nc(N)c(S(C)(=O)=O)c(C(F)F)n1 (racemic) [compound 287] | 80% | 100% | 90% | 100% | 100% | 100% | 90% | 100% | 100% | 100% | 90% | 100% | 90% | 100% | 80% | 80% | 100% | 100% | 100% | 100% | post-emergence efficacy ABUTH (Abutilon theophrasti [6]; 80 g/ha): 80%; post-emergence efficacy ABUTH (Abutilon theophrasti [6]; 320 g/ha): 80%; post-emergence efficacy VERPE (Veronica persica [10]; 80 g/ha): 80% |
| CC(=O)c1cnc(NC2CCCc3sccc32)nc1N (stereo not shown) [compound 301] |  | 70% | 100% | 100% | 100% | 100% | 100% | 100% | 100% | 100% | 100% | 100% | 80% | 80% |  | 60% | 60% | 100% | 80% | 90% | ALOMY pre-emergence efficacy (herbicidal activity) (Alopecurus myosuroides; Dosage 320 g/ha): 80%; ECHCG pre-emergence efficacy (herbicidal activity) (Echinochloa crus-galli [12]; Dosage 80 g/ha): 70%; ECHCG pre-emergence efficacy (herbicidal activity) (Echinochloa crus-galli [12]; Dosage 320 g/ha): 100%; LOLMU pre-emergence efficacy (herbicidal activity) (Lolium multiflorum): 100%; SETVI pre-emergence efficacy (herbicidal activity) (Setaria viridis [13]; Dosage 80 g/ha): 100%; SETVI pre-emergence efficacy (herbicidal activity) (Setaria viridis [13]; Dosage 320 g/ha): 100%; post-emergence efficacy PHBPU (Ipomoea purpurea [14]): 90%; post-emergence efficacy MATIN (Matricaria inodora [15]; 320 g/ha): 60% |
| Cc1cc2c(s1)CCCC2Nc1ncc(C#N)c(N)n1 (racemic) [compound 52] | 100% | 100% |  | 100% | 100% | 100% | 100% | 100% | 100% | 100% |  |  | 100% | 100% | 80% | 100% | 100% | 90% | 90% | 90% | ABUTH pre-emergence efficacy (herbicidal activity) (Abutilon theophrasti [16]; Dosage 80 g/ha): 90%; ABUTH pre-emergence efficacy (herbicidal activity) (Abutilon theophrasti [16]; Dosage 320 g/ha): 100%; ALOMY pre-emergence efficacy (herbicidal activity) (Alopecurus myosuroides; Dosage 80 g/ha): 70%; ALOMY pre-emergence efficacy (herbicidal activity) (Alopecurus myosuroides; Dosage 320 g/ha): 80%; AMARE pre-emergence efficacy (herbicidal activity) (Amaranthus retroflexus [17]; Dosage 80 g/ha): 100%; AMARE pre-emergence efficacy (herbicidal activity) (Amaranthus retroflexus [17]; Dosage 320 g/ha): 100%; AVEFA pre-emergence efficacy (herbicidal activity) (Avena fatua; Dosage 80 g/ha): 90%; AVEFA pre-emergence efficacy (herbicidal activity) (Avena fatua; Dosage 320 g/ha): 90%; ECHCG pre-emergence efficacy (herbicidal activity) (Echinochloa crus-galli [12]; Dosage 80 g/ha): 80%; ECHCG pre-emergence efficacy (herbicidal activity) (Echinochloa crus-galli [12]; Dosage 320 g/ha): 90%; POLCO pre-emergence efficacy (herbicidal activity) (Polygonum convolvulus; Dosage 80 g/ha): 100%; POLCO pre-emergence efficacy (herbicidal activity) (Polygonum convolvulus; Dosage 320 g/ha): 100%; SETVI pre-emergence efficacy (herbicidal activity) (Setaria viridis [13]; Dosage 80 g/ha): 80%; SETVI pre-emergence efficacy (herbicidal activity) (Setaria viridis [13]; Dosage 320 g/ha): 100%; post-emergence efficacy ECHCG (Echinochloa crus-galli [18]): 100%; post-emergence efficacy MATIN (Matricaria inodora [15]; 80 g/ha): 60%; post-emergence efficacy MATIN (Matricaria inodora [15]; 320 g/ha): 60%; post-emergence efficacy SETVI (Setaria viridis [8]; 80 g/ha): 60%; post-emergence efficacy VERPE (Veronica persica [10]; 80 g/ha): 90% |
